Source: PubChem BioAssay (NCI)
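Grown in 96-well plates, cells were treated for 48 hours with each compound at five concentrations. Insufficient inhibition: endpoint recorded as highest concentration tested. TGI: concentration producing complete growth inhibition.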

Tests used:
Experiment in all cases: NCI tumour cell line growth inhibition, 48 h
786-0 renal = system: 786-0 renal
A498 renal = system: A498 renal
A549 NSCLC = system: A549 NSCLC
ACHN renal = system: ACHN renal
CAKI-1 renal = system: CAKI-1 renal
CCRF-CEM leukemia = system: CCRF-CEM leukemia
COLO 205 colon = system: COLO 205 colon
DU-145 prostate = system: DU-145 prostate
EKVX NSCLC = system: EKVX NSCLC
HCC-2998 colon = system: HCC-2998 colon
HCT-116 colon = system: HCT-116 colon
HCT-15 colon = system: HCT-15 colon
HL-60(TB) leukemia = system: HL-60(TB) leukemia
HOP-62 NSCLC = system: HOP-62 NSCLC
HOP-92 NSCLC = system: HOP-92 NSCLC
HS 578T breast = system: HS 578T breast
HT29 colon = system: HT29 colon
IGROV1 ovarian = system: IGROV1 ovarian
K-562 leukemia = system: K-562 leukemia
KM12 colon = system: KM12 colon
LOX IMVI melanoma = system: LOX IMVI melanoma
M14 melanoma = system: M14 melanoma
MALME-3M melanoma = system: MALME-3M melanoma
MCF7 breast = system: MCF7 breast
MDA-MB-231 breast = system: MDA-MB-231 breast
MDA-MB-435 = system: MDA-MB-435
MDA-N = system: MDA-N
MOLT-4 leukemia = system: MOLT-4 leukemia
NCI-H226 lung = system: NCI-H226 lung
NCI-H23 lung = system: NCI-H23 lung
NCI-H460 lung = system: NCI-H460 lung
NCI-H522 lung = system: NCI-H522 lung
NCI/ADR-RES ovarian = system: NCI/ADR-RES ovarian
OVCAR-3 ovarian = system: OVCAR-3 ovarian
OVCAR-4 ovarian = system: OVCAR-4 ovarian
OVCAR-5 ovarian = system: OVCAR-5 ovarian
OVCAR-8 ovarian = system: OVCAR-8 ovarian
PC-3 prostate = system: PC-3 prostate
RPMI-8226 leukemia = system: RPMI-8226 leukemia
RXF 393 renal = system: RXF 393 renal
SF-268 CNS = system: SF-268 CNS
SF-295 CNS = system: SF-295 CNS
SF-539 CNS = system: SF-539 CNS
SK-MEL-2 melanoma = system: SK-MEL-2 melanoma
SK-MEL-28 melanoma = system: SK-MEL-28 melanoma
SK-MEL-5 melanoma = system: SK-MEL-5 melanoma
SK-OV-3 ovarian = system: SK-OV-3 ovarian
SN12C renal = system: SN12C renal
SNB-19 CNS = system: SNB-19 CNS
SNB-75 CNS = system: SNB-75 CNS
SR leukemia = system: SR leukemia
SW-620 colon = system: SW-620 colon
T-47D breast = system: T-47D breast
TK-10 renal = system: TK-10 renal
U251 CNS = system: U251 CNS
UACC-257 melanoma = system: UACC-257 melanoma
UACC-62 melanoma = system: UACC-62 melanoma
UO-31 renal = system: UO-31 renal
BT-549 breast = system: BT-549 breast

`COC1OC(COC(=O)c2cc(O)c(O)c(O)c2)C(OC(=O)c2cc(O)c(O)c(O)c2)C(OC(=O)c2cc(O)c(O)c(O)c2)C1OC(=O)c1cc(O)c(O)c(O)c1` (configuration not stated) was tested, and the TGI (786-0 renal) was 26.4 µM, the TGI (A498 renal) was 62.6 µM and the TGI (A549 NSCLC) was greater than 100 µM. It also gave a TGI (ACHN renal) greater than 100 µM, a TGI (CAKI-1 renal) greater than 100 µM and a TGI (CCRF-CEM leukemia) of 42.5 µM. For the same molecule, the TGI (COLO 205 colon) was greater than 100 µM, the TGI (DU-145 prostate) was greater than 100 µM and the TGI (EKVX NSCLC) was greater than 100 µM. The TGI (HCC-2998 colon) was greater than 100 µM, the TGI (HCT-116 colon) was greater than 100 µM and the TGI (HCT-15 colon) was greater than 100 µM. The TGI (HL-60(TB) leukemia) was 50.1 µM, the TGI (HOP-62 NSCLC) was greater than 100 µM and the TGI (HOP-92 NSCLC) was greater than 100 µM. The TGI (HS 578T breast) was greater than 100 µM, the TGI (HT29 colon) was greater than 100 µM and the TGI (IGROV1 ovarian) was greater than 100 µM. The TGI (K-562 leukemia) was 49.7 µM, the TGI (KM12 colon) was greater than 100 µM and the TGI (LOX IMVI melanoma) was greater than 100 µM. It also gave a TGI (M14 melanoma) of 26.8 µM, a TGI (MALME-3M melanoma) greater than 100 µM and a TGI (MCF7 breast) greater than 100 µM. For the same molecule, the TGI (MDA-MB-231 breast) was greater than 100 µM, the TGI (MDA-MB-435) was 25.7 µM and the TGI (MDA-N) was 87.6 µM. It also gave a TGI (MOLT-4 leukemia) of 70.6 µM, a TGI (NCI-H226 lung) of 66.8 µM and a TGI (NCI-H23 lung) greater than 100 µM. For the same molecule, the TGI (NCI-H460 lung) was greater than 100 µM, the TGI (NCI-H522 lung) was 50.4 µM and the TGI (NCI/ADR-RES ovarian) was 98.4 µM. It also gave a TGI (OVCAR-3 ovarian) of 77.7 µM, a TGI (OVCAR-4 ovarian) greater than 100 µM and a TGI (OVCAR-5 ovarian) greater than 100 µM. For the same molecule, the TGI (OVCAR-8 ovarian) was greater than 100 µM, the TGI (PC-3 prostate) was greater than 100 µM and the TGI (RPMI-8226 leukemia) was 97.3 µM. It also gave a TGI (RXF 393 renal) greater than 100 µM, a TGI (SF-268 CNS) greater than 100 µM and a TGI (SF-295 CNS) greater than 100 µM. It also gave a TGI (SF-539 CNS) of 37.1 µM, a TGI (SK-MEL-2 melanoma) greater than 100 µM and a TGI (SK-MEL-28 melanoma) greater than 100 µM. For the same molecule, the TGI (SK-MEL-5 melanoma) was greater than 100 µM, the TGI (SK-OV-3 ovarian) was 54 µM and the TGI (SN12C renal) was greater than 100 µM. For the same molecule, the TGI (SNB-19 CNS) was greater than 100 µM, the TGI (SNB-75 CNS) was greater than 100 µM and the TGI (SR leukemia) was 36 µM. The TGI (SW-620 colon) was greater than 100 µM, the TGI (T-47D breast) was greater than 100 µM and the TGI (TK-10 renal) was greater than 100 µM. For the same molecule, the TGI (U251 CNS) was greater than 100 µM, the TGI (UACC-257 melanoma) was greater than 100 µM and the TGI (UACC-62 melanoma) was greater than 100 µM. The TGI (UO-31 renal) was greater than 100 µM.

`COC(=O)CCC(C)C1CCC2C3C(C[C@H](OC(C)=O)[C@]12C)[C@@]1(C)CCC2(C[C@H]1C[C@H]3OC(C)=O)OOC1(CC[C@]3(C)C4C[C@H](OC(C)=O)[C@]5(C)C(C(C)CCC(=O)OC)CCC5C4[C@H](OC(C)=O)C[C@@H]3C1)OO2` (some centres not stated) was tested, and the TGI (786-0 renal) was greater than 100 µM, the TGI (A549 NSCLC) was greater than 100 µM and the TGI (ACHN renal) was greater than 100 µM. It also gave a TGI (BT-549 breast) greater than 100 µM, a TGI (CAKI-1 renal) greater than 100 µM and a TGI (CCRF-CEM leukemia) greater than 100 µM. It also gave a TGI (COLO 205 colon) greater than 100 µM, a TGI (DU-145 prostate) greater than 100 µM and a TGI (EKVX NSCLC) greater than 100 µM. It also gave a TGI (HCC-2998 colon) greater than 100 µM, a TGI (HCT-116 colon) greater than 100 µM and a TGI (HCT-15 colon) greater than 100 µM. It also gave a TGI (HL-60(TB) leukemia) greater than 100 µM, a TGI (HOP-62 NSCLC) greater than 100 µM and a TGI (HS 578T breast) greater than 100 µM. For the same molecule, the TGI (HT29 colon) was greater than 100 µM, the TGI (IGROV1 ovarian) was greater than 100 µM and the TGI (K-562 leukemia) was greater than 100 µM. The TGI (KM12 colon) was greater than 100 µM, the TGI (LOX IMVI melanoma) was greater than 100 µM and the TGI (M14 melanoma) was greater than 100 µM. The TGI (MALME-3M melanoma) was greater than 100 µM, the TGI (MCF7 breast) was greater than 100 µM and the TGI (MDA-MB-231 breast) was greater than 100 µM. The TGI (MDA-MB-435) was greater than 100 µM, the TGI (MDA-N) was greater than 100 µM and the TGI (MOLT-4 leukemia) was greater than 100 µM. It also gave a TGI (NCI-H226 lung) greater than 100 µM, a TGI (NCI-H23 lung) greater than 100 µM and a TGI (NCI-H460 lung) greater than 100 µM. It also gave a TGI (NCI-H522 lung) greater than 100 µM, a TGI (NCI/ADR-RES ovarian) greater than 100 µM and a TGI (OVCAR-3 ovarian) greater than 100 µM. The TGI (OVCAR-4 ovarian) was greater than 100 µM, the TGI (OVCAR-5 ovarian) was greater than 100 µM and the TGI (OVCAR-8 ovarian) was greater than 100 µM. The TGI (PC-3 prostate) was greater than 100 µM, the TGI (RPMI-8226 leukemia) was greater than 100 µM and the TGI (RXF 393 renal) was greater than 100 µM. For the same molecule, the TGI (SF-268 CNS) was greater than 100 µM, the TGI (SF-295 CNS) was greater than 100 µM and the TGI (SK-MEL-2 melanoma) was greater than 100 µM. It also gave a TGI (SK-MEL-28 melanoma) greater than 100 µM, a TGI (SK-MEL-5 melanoma) greater than 100 µM and a TGI (SK-OV-3 ovarian) greater than 100 µM. The TGI (SN12C renal) was greater than 100 µM, the TGI (SNB-19 CNS) was greater than 100 µM and the TGI (SNB-75 CNS) was greater than 100 µM. It also gave a TGI (SR leukemia) of 99.1 µM, a TGI (SW-620 colon) greater than 100 µM and a TGI (TK-10 renal) greater than 100 µM. The TGI (U251 CNS) was greater than 100 µM, the TGI (UACC-257 melanoma) was greater than 100 µM and the TGI (UO-31 renal) was greater than 100 µM.
